Results taken from paper PMC9994102, “A fluorescent photoaffinity probe for formyl peptide receptor 1 labelling in living cells†” (RSC Chemical Biology, 2023).
Square brackets hold non-standard residues; d marks the D form. * marks the point of attachment. FITC = O=C1OC2(c3ccc(O)cc3Oc3cc(O)ccc32)c2ccc(NC(=S)*)cc21; Abu(3-Me-diazirin-3-yl) = CC1(CC[C@H](N)C(=O)O)N=N1; Nle = CCCC[C@H](N)C(=O)O; For = O=C*

How the values were obtained:
[1] = system: FPR1 (FPR1-HEK293T cells); assay: flow cytometry competition of probe-TAMRA with known ligands; format: binding; conditions: probe-TAMRA 10 nM
Experimental: (§1) Cells were incubated in a humidified atmosphere at 37 °C containing 5% CO2. HEK293T cells were cultured in Dulbecco’s Modified Eagle Medium (DMEM, Fisher) supplemented with 1% L-glutamine, 10% v/v fetal bovine serum (FBS) and 1% v/v Pen-Strep. Cells were detached using 1  trypsin in PBS.
HEK293T cells were seeded in a 6-well plate (2 × 10^5 cells/well) and incubated at 37 °C overnight. The plasmid containing FPR1 gene (0.7 µg/µL stock) and Turbofect (Fisher) were mixed with DMEM (no FBS) and incubated at room temperature for 15 min (1 µg of plasmid and 3 µL of Turbofect in 100 µL of media per well). The solution was added to the plated cells and incubated at 37 °C overnight. For mock transfection, the plasmid was omitted. […]
concentrations of 5 µM, 20 µM, 5 µM respectively) or DMSO for 30 min on ice (final DMSO concentration of 2%). […] Membranes were resuspended in 25 µL PBS, irradiated for 30 s at 365 nm, deglycosylated as described in section 2.6, and then analysed by SDS-PAGE.
Crosslinked cell lysate samples were analysed using gel-based fluorescent imaging. […] Fluorescence was measured using a BioRad ChemiDoc MP Imaging System with a Cy3 filter. […]

[2] = system: FPR1 (crude membrane fraction of transfected HEK293T cells); assay: gel-based competition of probe-TAMRA labelling in membrane fraction; format: binding; conditions: 50 nM probe-TAMRA, 30 min on ice, 2% DMSO, 365 nm 30 s, PNGaseF
Experimental: (a) UV-dependent crosslinking analysed by gel and western blot. […] Following cell lysis, samples were separated by SDS-PAGE and analysed by in-gel fluorescence (550 nm emission) and anti-FLAG western blot. Ponceau staining was used to assess protein loading. […] Probes were used at a concentration of 10 nM. Samples were washed twice before analysis and 10,000 cells were measured per sample. […] HEK293T cells transfected with FPR1 or mock transfected were suspended, lysed by sonication and membrane fraction isolated by centrifugation. […] Proteins were deglycosylated with PNGaseF, separated by SDS-PAGE and analysed by in-gel fluorescence (550nm emission). The gel was Coomassie stained to provide evidence of equal protein loading.
as §1
HEK293T cells were seeded in a 6-well plate (2 × 10^5 cells/well) and incubated at 37 °C overnight. The plasmid containing FPR1 gene (0.7 µg/µL stock) and Turbofect (Fisher) were mixed with DMEM (no FBS) and incubated at room temperature for 15 min (1 µg of plasmid and 3 µL of Turbofect in 100 µL of media per well). The solution was added to the plated cells and incubated at 37 °C overnight. For mock transfection, the plasmid was omitted.
For 10 cm plate transfection for lysate preparation, the following modifications were used: 1.6×10^6 cells were seeded per plate; 8 µg plasmid and 24 µL Turbofect were mixed in 800 µL DMEM.
Transfected cells were washed with PBS and incubated in 1 mL of PBS with EDTA (per well) at 37 °C for 3 min to detach. The cells were then transferred into sterile Eppendorf tubes and centrifuged at 2000 rpm for 3 min at 4 °C to form pellets. Subsequently the cells were incubated with 1 mL of 10 nM probe in PBS at 0 °C for 30 min. […] Protein concentration was determined by the DC protein assay (Bio-Rad) using BSA to generate a standard curve. […]

FPR1 [3] = system: FPR1; design: method as in 4 sources, ref [17] = [17]; PMID 18312550; doi:10.1111/j.1747-0285.2008.00646.x; Wittelsberger A. Mierke D. F. Rosenblatt M. Mapping ligand-receptor interfaces: approaching the resolution limit of benzophenone-based photoaffinity scanning Chem. Biol. Drug Des. 2008 71 4 380 383 10 ||| ref [20] = [20]; PMID 472759; doi:10.1126/science.472759; Niedel J. E. Kahane I. Receptor-Mediated Internalisation of Fluorescent Chemotactic Peptide by Human Neutrophils Science 1979 205 1412 1414 10.1126/science.472759 472759 ||| ref [21] = [21]; PMID 15209517; doi:10.1021/bi035335i; Waller A. Sutton K. L. Kinzer-Ursem T. L. Absood A. Traynor J. R. Linderman J. J. Omann G. M. Receptor binding kinetics and cellular responses of six N-formyl peptide agonists in human neutrophils Bio ||| ref [30] = [30]; PMID 19006074; doi:10.1002/cyto.a.20670; Strouse J. J. Young S. M. Mitchell H. D. Ye R. D. Prossnitz E. R. Sklar L. A. Edwards B. S. A novel fluorescent cross-reactive formylpeptide receptor/formylpeptide receptor-like 1 hexapeptide ligand C; conditions: cited from earlier work; for binding to FPR1: ref [20]
[4] = molecular target: T1, FPR1 (FLAG-tagged, transiently transfected HEK293T cells) (Homo sapiens, UniProt P21462); assay: flow cytometry binding to FPR1-transfected HEK293T cells; conditions: 10 nM; 10 000 cells per sample
T1 construct: host or cells: HEK293T, transient transfection with Turbofect
T1 sequence (P21462 1-350): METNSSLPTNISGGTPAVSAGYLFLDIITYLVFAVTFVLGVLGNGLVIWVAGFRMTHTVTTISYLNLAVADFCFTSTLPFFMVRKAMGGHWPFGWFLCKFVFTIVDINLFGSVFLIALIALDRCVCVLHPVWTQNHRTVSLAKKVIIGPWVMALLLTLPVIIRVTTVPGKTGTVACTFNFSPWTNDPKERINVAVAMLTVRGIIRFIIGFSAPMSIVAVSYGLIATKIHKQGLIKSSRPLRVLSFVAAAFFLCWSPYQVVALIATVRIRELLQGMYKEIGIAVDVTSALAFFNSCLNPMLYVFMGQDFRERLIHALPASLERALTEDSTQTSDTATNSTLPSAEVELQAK
Experimental: Fig. 2 Evaluation of probe-TAMRA as a ligand for FPR1 by flow cytometry. Histograms of FPR1-transfected (+FPR1) or mock-transfected (mock) HEK293T cells incubated with Tracer-FITC (a) or probe-TAMRA (b) each at 10 nM at the indicated wavelengths. 10 000 cells measured per sample. (c) Plot of mean fluorescence intensity determined from flow cytometry analysis following incubation with increasing concentrations of probe-TAMRA with transfected (blue) or mock transfected (grey) cells. Data from 3 biological replicates; error bars represent standard error of the mean. Black curve is subtraction of background binding (grey curve) from blue curve and represents specific binding. (d) Dot plot from incubation of transfected cells with Tracer-FITC alone (cyan), probe-TAMRA alone (blue), or co-incubation of probe and tracer (red). All peptides at 10 nM. (e) Plot of percentage maximum fluorescence at 525 nm (FITC) and 585 nm (TAMRA) wavelengths from a flow cytometry competition experiment in which Tracer-FITC was held constant at a concentration of 10 nM and the concentration of probe-TAMRA increased from 0–200 nM. […]
Transfected cells were washed with PBS and incubated in 1 mL of PBS with EDTA (per well) at 37 °C for 3 min to detach. […] Protein concentration was determined by the DC protein assay (Bio-Rad) using BSA to generate a standard curve. […]

FPR1 [5] = conditions: ref [20]; cited from earlier work
Experimental: Upon agonist binding, FPR1 internalises following activation of G protein subunits, resulting in receptor desensitisation.[20] […] Upon heating to 37 °C, fluorescent material was ob ...

[6] = molecular target: T2, Formyl peptide receptor 1, C-terminally FLAG-tagged (UniProt P21462 1-350); assay: flow cytometry on cells; FPR1-transfected or mock-transfected HEK293T cells incubated with the fluorescent peptide (10 nM; probe-TAMRA titrated 0-200 nM); background of mock-transfected cells subtracted; 3 biological replicates; conditions: one partner purified
T2 construct: Formyl peptide receptor 1 (FPR1); Glycosylated in HEK293T (diffuse band that sharpens with PNGaseF); also called FPR1; FLAG-tagged FPR1; source: HEK293T, transiently transfected; on living cells, in lysate (sonication) or in a crude membrane fraction; not shown: FLAG, C-terminal, kept
T2 sequence (looked up): T1 sequence (P21462 1-350)

With Boc-MLF as the molecule, how does the “concentration at which competition of probe-TAMRA binding observed” value [1] read?
Its value is 10 to 50 µM.

What about the “inhibition of probe-TAMRA labelling” value ([2]; 20 μM competitor) of the same molecule?
Its value is “incomplete inhibition”.

Which results are given for fMLFF?
inhibition of probe-TAMRA labelling ([2]; 5 μM competitor): complete inhibition; potency as reported (FPR1 [3]; ref [30]): more potent

With “For-[Nle]LF[Nle]YK(FITC)-OH [Tracer-FITC]” as the molecule, how does the “fluorescence shift in flow cytometry” value [4] read?
Its value is “clear shift to a population of fluorescent cells with minimal background binding in mock-transfected cells”.

What about the Kd (FPR1 [3]; ref [17], read-out: reported KD) of the same molecule?
The Kd was ~3 nM.

And the “binding to FPR1” value (FPR1 [3])?
The value was “low nM binding to FPR1”.

Which results are given for “formyl-Nle-Leu-Phe-Nle-Tyr-Lys(TAMRA)-OH [TAMRA version of the tracer]”?
binding to FPR1 (FPR1 [3]): low nM binding to FPR1; internalisation (literature) (FPR1 [5]): receptor internalisation

Which results are given for fMLF?
concentration at which competition of probe-TAMRA binding observed [1]: greater than 5 μM; inhibition of probe-TAMRA labelling ([2]; 5 μM competitor): incomplete inhibition; KD of tripeptide (reported, words) (FPR1 [3]; ref [21]): nM range

B1: probe-TAMRA (peptide)
chain: For-[Abu(3-Me-diazirin-3-yl)]LF[Nle]YK(5(6)‑TAMRA)-OH
With B1 as the molecule, how does the Kd [6] read?
The Kd was 3.5 ± 0.9 nM.
